Experimental data: article PMC10762035, “Molecular basis of human trace amine-associated receptor 1 activation” (Nature Communications, 2024)
Changes are numbered by the printed parent chain. Several values for one entry are separate records, joined by “and”; a condition that tells them apart may be missing. Identical values can stand only once. Like-named read-outs stand apart in the source and are kept apart here.

How the values were obtained:
hTA1 T194A = target: T1, hTA1 T194A (Homo sapiens, UniProt Q96RJ0, T194A); experiment: GloSensor cAMP accumulation assay, T194A mutant
T1 sequence (Q96RJ0 1-339 T194A): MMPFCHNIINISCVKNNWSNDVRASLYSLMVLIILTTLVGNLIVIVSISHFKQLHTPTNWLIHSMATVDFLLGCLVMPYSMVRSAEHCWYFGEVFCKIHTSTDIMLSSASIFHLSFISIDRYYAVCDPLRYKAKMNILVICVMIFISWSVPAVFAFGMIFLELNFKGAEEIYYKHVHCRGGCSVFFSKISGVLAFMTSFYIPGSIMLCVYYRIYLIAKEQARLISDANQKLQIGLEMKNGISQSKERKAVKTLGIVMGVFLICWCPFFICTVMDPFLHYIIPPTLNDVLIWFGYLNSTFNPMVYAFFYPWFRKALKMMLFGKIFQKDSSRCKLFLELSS

hTA1 I290Y = target: T2, hTA1 I290Y (Homo sapiens, UniProt Q96RJ0, I290Y); experiment: GloSensor cAMP accumulation assay, I290Y mutant; type: cell-based; settings: for cAMP accumulation response, normalized (concentration-response source data, single replicate values): hTA1 I290Y (N=3), log[Compound];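 on cAMP accumulation response, normalized (concentration-response source data, single replicate values): normalized to the maximum response of β-PEA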
T2 construct: expressed in transfected cells; host or cells: HEK293T
T2 sequence (Q96RJ0 1-339 I290Y): T1 sequence (Q96RJ0 1-339 T194A) with A194T, I290Y

hTA1 C96S = target: T3, hTA1 C96S (Homo sapiens, UniProt Q96RJ0, C96S); experiment: GloSensor cAMP accumulation assay, C96S mutant; type: cell-based; settings: log[Compound]
T3 construct: expressed in transfected cells; host or cells: HEK293T
T3 sequence (Q96RJ0 1-339 C96S): T1 sequence (Q96RJ0 1-339 T194A) with C96S, A194T

hTA1 T271A = target: T4, hTA1 T271A (Homo sapiens, UniProt Q96RJ0, T271A); experiment: GloSensor cAMP accumulation assay, T271A mutant; type: cell-based
T4 construct: expressed in transfected cells; host or cells: HEK293T
T4 sequence (Q96RJ0 1-339 T271A): T1 sequence (Q96RJ0 1-339 T194A) with A194T, T271A

hTA1 C88S = target: T5, hTA1 C88S (Homo sapiens, UniProt Q96RJ0, C88S); experiment: GloSensor cAMP accumulation assay, C88S mutant; type: cell-based
T5 construct: expressed in transfected cells; host or cells: HEK293T
T5 sequence (Q96RJ0 1-339 C88S): T1 sequence (Q96RJ0 1-339 T194A) with C88S, A194T

[1] = read-out: Span ± SEM (Emax normalized to β-PEA)

With `CCC(CC1COC(N)=N1)c1ccccc1` (centres unmarked) [Ro5256390] the EC50 (hTA1 T194A; EC50, T194A) was 34.8 nM, the “Emax values, Mean” value (hTA1 T194A; T149A (so in the source), single experiments (3 replicates each), β-PEA = 100) was 128.602 and 110.169 and 108.613 and the “reduction in potency vs wild type” value (hTA1 T194A; T194A) was “over 5 fold”. For the same compound, the EC50 (hTA1 T194A; pEC50 values, Mean, T149A (so in the source), single experiments (3 replicates each)) was 34.8 nM and 27.7 nM and 14.2 nM, the EC50 (hTA1 T194A; pEC50 ± SEM, T194A) was 24 nM and the Emax (hTA1 T194A; [1]) was 116 ± 9.22%. The EC50 (hTA1 I290Y; EC50, I290Y) was 3.79 nM, the “Emax values, Mean” value (hTA1 I290Y; I290Y, single experiments (3 replicates each), β-PEA = 100) was 89.4977 and 95.7835 and 67.042 and the “cAMP accumulation response, normalized (concentration-response source data, single replicate values)” value (shortened to “cAMP accumulation response, normalized”) (hTA1 I290Y; M = -5) was 116.004 and 90.4575 and 99.9991 and 95.6306 and 94.8977 and 106.257 and 79.386 and 92.9217 and 71.4902. The “cAMP accumulation response, normalized” value (hTA1 I290Y; M = -5.522) was 112.926 and 87.6874 and 89.8419 and 104.792 and 95.2641 and 96.3635 and 62.4664 and 47.8027 and 61.3384, the “cAMP accumulation response, normalized” value (hTA1 I290Y; M = -6) was 83.3783 and 72.6056 and 91.3809 and 91.5998 and 83.1717 and 95.997 and 59.0825 and 62.4664 and 68.1063 and the “cAMP accumulation response, normalized” value (hTA1 I290Y; M = -6.522) was 92.9198 and 66.4498 and 97.2289 and 82.4388 and 92.3327 and 95.997 and 63.5944 and 55.6986 and 61.3384. The “cAMP accumulation response, normalized” value (hTA1 I290Y; M = -7) was 110.156 and 60.6017 and 92.3043 and 89.4012 and 82.4388 and 95.997 and 47.8027 and 61.3384 and 55.6986, the “cAMP accumulation response, normalized” value (hTA1 I290Y; M = -7.522) was 92.6121 and 50.1368 and 96.6133 and 79.5073 and 85.3703 and 95.2641 and 50.0587 and 56.8265 and 52.3146 and the “cAMP accumulation response, normalized” value (hTA1 I290Y; M = -8) was 93.8432 (2×) and 82.1471 and 71.4457 and 85.3703 and 69.6135 and 30.8831 (2×) and 25.2433. For the same compound, the “cAMP accumulation response, normalized” value (hTA1 I290Y; M = -8.522) was 58.1394 and 51.6758 and 54.7537 and 45.0622 and 47.6273 and 45.4287 and 15.0915 and 9.4516 and 13.9635, the “cAMP accumulation response, normalized” value (hTA1 I290Y; M = -9) was 42.442 and 23.359 and 39.3641 and 21.9767 and 28.939 and 28.2061 and 3.812 and 2.684 and 9.4516 and the “cAMP accumulation response, normalized” value (hTA1 I290Y; M = -9.522) was 12.5863 and 7.046 and 12.2785 and 10.9836 and 8.785 and 11.7164 and -2.956 and -1.828 and 0.4278. For the same compound, the “cAMP accumulation response, normalized” value (hTA1 I290Y; M = -10) was 11.6629 and 9.816 and 11.9707 and -2.575 and -0.376 and 1.456 and 0.4278 and -0.7002 and -1.828, the “cAMP accumulation response, normalized” value (hTA1 I290Y; M = -10.522) was 3.045 and the EC50 (hTA1 I290Y; pEC50 values, Mean, I290Y, single experiments (3 replicates each)) was 1.77 nM and 2.74 nM and 11.3 nM. For the same compound, the EC50 (hTA1 I290Y; pEC50 ± SEM, I290Y) was 3.8 nM, the Emax (hTA1 I290Y; [1]) was 84.1 ± 8.72% and the “Normalized Luminescence Counts” value (hTA1 C96S; C96S, M = -5, single replicates (N=2)) was -0.5726 and -3.209 and -1.891 and -16.2542 and -4.6346 and -2.698. For the same compound, the “Normalized Luminescence Counts” value (hTA1 C96S; C96S, M = -5.522, single replicates (N=2)) was -1.891 (2×) and -3.209 and -4.6346 and -8.508 and 10.8582, the “Normalized Luminescence Counts” value (hTA1 C96S; C96S, M = -6, single replicates (N=2)) was 4.041 and -2.55 and -0.5726 and 5.048 (2×) and -10.4444 and the “Normalized Luminescence Counts” value (hTA1 C96S; C96S, M = -6.522, single replicates (N=2)) was 1.4045 and -2.55 and 2.723 and -0.7614 and -4.6346 and 3.112. The “Normalized Luminescence Counts” value (hTA1 C96S; C96S, M = -7, single replicates (N=2)) was 2.723 and -1.891 and 1.4045 and -0.7614 (2×) and -4.6346, the “Normalized Luminescence Counts” value (hTA1 C96S; C96S, M = -7.522, single replicates (N=2)) was 5.359 and -3.209 and 2.723 and -0.7614 and -10.4444 and 14.7315 and the “Normalized Luminescence Counts” value (hTA1 C96S; C96S, M = -8, single replicates (N=2)) was 2.064 and -0.5726 (2×) and 30.2243 and -8.508 and 12.7948. For the same compound, the “Normalized Luminescence Counts” value (hTA1 C96S; C96S, M = -8.522, single replicates (N=2)) was 0.7455 and -1.891 and 4.7 and 14.7315 and 3.112 and 12.7948, the “Normalized Luminescence Counts” value (hTA1 C96S; C96S, M = -9, single replicates (N=2)) was 0.7455 and -1.232 and -1.891 and 18.6047 and 8.922 and -4.6346 and the “Normalized Luminescence Counts” value (hTA1 C96S; C96S, M = -9.522, single replicates (N=2)) was 0.08646 and -3.209 and -2.55 and 3.112 and 1.175 and -0.7614. The “Normalized Luminescence Counts” value (hTA1 C96S; C96S, M = -10, single replicates (N=2)) was 1.4045 and -0.5726 and 0.7455 and 3.112 and -2.698 (2×), the “Normalized Luminescence Counts” value (hTA1 C96S; C96S, M = -10.522, single replicates (N=2)) was -0.5726 and -2.55 and -1.232 and 5.048 and 6.985 and -2.698 and the “Normalized Luminescence Counts” value (hTA1 C96S; C96S, M = -11, single replicates (N=2)) was 0.7455 and 0.08646 and 4.7 and 32.1609 and 18.6047 and 10.8582. The “Normalized Luminescence Counts” value (hTA1 C96S; C96S, M = -11.522, single replicates (N=2)) was 3.382 and 0.7455 and 1.4045 and 20.5413, the “Normalized Luminescence Counts” value (hTA1 C96S; M = -11.522, single replicates, mutant block above C178S) was 0.4362 and 0.4589 and 0.8459 and 2.031 and 1.818 and 1.444 and the “Normalized Luminescence Counts” value (hTA1 C96S; M = -12, single replicates, mutant block above C178S) was 0.6183 and 0.1175 and -0.01903 and 3.527 and 0.8561 and 0.9629. The “Normalized Luminescence Counts” value (hTA1 C96S; M = -12.522, single replicates, mutant block above C178S) was -0.1556 (2×) and -0.2011 and 1.711 and 1.818 and 0.6424, the EC50 (hTA1 T271A; EC50, T271A, n=2) was 14.7 nM and the “Emax values, Mean” value (hTA1 T271A; T271A mutant, Figure 5B, β-PEA = 100, each row one independent experiment (3 replicates)) was 98.9093. The EC50 (hTA1 T271A; pEC50 values, Mean, T271A mutant, Figure 5B, each row one independent experiment (3 replicates)) was 8.67 nM and 24.8 nM, the Emax (hTA1 T271A; read-out: Emax values, Mean, T271A mutant, Figure 5B, β-PEA = 100, each row one independent experiment (3 replicates)) was 92.1% and the Emax (hTA1 T271A; read-out: Span ± SEM (Emax normalized to β-PEA), T271A, n=2) was 95.5 ± 3.42%. For the same compound, the Emax values (hTA1 C88S; C88S, Mean of fit per experiment) was 141.143 and 102.28, the Emax (hTA1 C88S; C88S, relative to β-PEA) was 122% and the EC50 (hTA1 C88S; pEC50 values, C88S, Mean of fit per experiment) was 3.91 nM and 2.46 nM. It also gave an EC50 (hTA1 C88S; pEC50 ± SEM, C88S, n=2) of 3.09 nM and an Emax (hTA1 C88S; read-out: Span ± SEM (Emax normalized to β-PEA), C88S, n=2) of 122%.
